The assay has as its system cortisol antibodies (antisera to cortisol-3-carboxymethyloxime-BSA). As to the kind of experiment: competitive radioimmunoassay, binding affinity curves on antibody-coated polystyrene beads. Details: species or system rabbit. As for the experimental part:
Female rabbits were immunized subcutaneously at multiple sites with 1 mg of cortisol-3-CMO-BSA conjugate, prepared according to method of example 1, in saline emulsified with complete Freund's adjuvant (Difco Laboratories, Detroit, Michigan) on weeks 1, 2, 3 and 4 with booster injections of […] of the immunogen being given at longer intervals according to the antibody titer. Blood was collected from the marginal ear vein after three months of immunization. The serum was harvested and frozen for future use.
Into appropriately labeled 12×75 mm plastic tubes containing polystyrene beads coated with cortisol antibodies generated according to this disclosure, was added 25 μl of standard serum, followed by 300 μl of radioactive assay solution containing a mixture of borate buffered saline, pH 8.8; 0.12% Triton X 100 and approximately 0.25 ng/ml of either the syn, anti or racemic mixture of ^125 I labeled tyrosine methyl ester derivative of cortisol-21-acetate-3-carboxymethyloxime. The reaction mixture was incubated with agitation at room temperature for one hour. The liquid contents of the tubes were aspirated and the radioactivity bound to the antibody coated beads was counted. The percent bound versus cortisol concentration was plotted. […] Knowing this preference, it would be advantageous in terms of sensitivity and specificity to employ only the syn isomer in assays for the determination of cortisol in biological fluids.

Consider `COC(=O)[C@H](Cc1ccc(O)c([125I])c1)NC(=O)CO/N=C1\C=C2CC[C@@H]3[C@H]([C@@H](O)C[C@@]4(C)[C@H]3CC[C@]4(O)C(=O)COC(C)=O)[C@@]2(C)CC1` [I^125 syn isomer], for which the “affinity of antibody for labeled antigen conjugate (percent bound versus cortisol concentration)” value (approx. 0.25 ng/ml tracer, room temperature, one hour, borate buffered saline pH 8.8, compared with anti isomer and racemic mixture) is recorded as “demonstrably greater affinity”. The “affinity constant calculated from slope of standard curves (FIG. 1)” value (compared with I^125 -anti-isomer and I^125 -mixture (syn and anti)) is given as “highest”. Moreover, where the note is “compared with labeled anti-isomer and racemic mixture”, the “immunoavidity of antisera for the labeled isomer” value is “significant preference in immunoavidity”. In addition, for the setting “standard curves”, the “sensitivity of the antibody for the labeled isomer (FIG. 1)” value is listed as “increased sensitivity”.

These data come from patent US4339390A, “Preferential immunoreactivity of syn-isomer of cortisol derivative” (Abbott Laboratories, priority 1981, dated 1982).
